As usually defined, the Ki is the equilibrium dissociation constant of an inhibitor or competing ligand from its target.

The source of these data is article PMC5862982 (ACS chemical neuroscience, 2017).

Experiment [1] addresses T1, membrane-bound aminopeptidase activity in the CA1 (Rattus norvegicus, UniProt P15684).
T1 sequence (P15684 2-965): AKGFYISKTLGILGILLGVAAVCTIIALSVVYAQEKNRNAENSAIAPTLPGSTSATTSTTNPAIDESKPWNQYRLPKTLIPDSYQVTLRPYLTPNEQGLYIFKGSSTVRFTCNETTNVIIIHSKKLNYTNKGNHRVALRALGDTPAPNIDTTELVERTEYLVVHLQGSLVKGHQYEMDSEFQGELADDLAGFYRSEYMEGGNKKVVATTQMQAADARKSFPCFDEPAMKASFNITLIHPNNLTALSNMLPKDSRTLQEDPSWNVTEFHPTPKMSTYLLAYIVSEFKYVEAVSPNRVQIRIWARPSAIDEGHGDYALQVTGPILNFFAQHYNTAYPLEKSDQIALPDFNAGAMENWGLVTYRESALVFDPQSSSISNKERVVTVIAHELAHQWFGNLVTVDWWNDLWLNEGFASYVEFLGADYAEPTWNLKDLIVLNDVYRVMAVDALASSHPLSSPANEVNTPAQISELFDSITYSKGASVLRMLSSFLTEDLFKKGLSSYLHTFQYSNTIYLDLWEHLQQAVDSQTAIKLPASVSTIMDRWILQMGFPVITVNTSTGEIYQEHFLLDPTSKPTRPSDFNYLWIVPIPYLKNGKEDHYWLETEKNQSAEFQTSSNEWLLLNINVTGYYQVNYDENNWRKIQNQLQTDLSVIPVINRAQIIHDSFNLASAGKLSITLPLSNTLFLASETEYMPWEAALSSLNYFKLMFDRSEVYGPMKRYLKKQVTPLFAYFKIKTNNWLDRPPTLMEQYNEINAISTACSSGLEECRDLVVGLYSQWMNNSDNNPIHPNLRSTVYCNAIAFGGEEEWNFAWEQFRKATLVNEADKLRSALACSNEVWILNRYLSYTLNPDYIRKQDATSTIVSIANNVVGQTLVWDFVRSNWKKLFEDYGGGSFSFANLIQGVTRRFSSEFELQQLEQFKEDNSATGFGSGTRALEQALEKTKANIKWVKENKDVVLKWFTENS
The class given is biochemical.

Experiment [2] concerns the target T2, membrane-bound aminopeptidase activity in the CA3 (Rattus norvegicus, UniProt P15684).
T2 sequence (P15684 2-965): T1 sequence (P15684 2-965)
The class given is biochemical.

For experiment [3], the target named is puromycin-sensitive aminopeptidase (PSA, EC 3.4.11.14). Conditions: cited from earlier work.
For experiment [4], the target named is aminopeptidase N (APN, EC 3.4.11.2). To be noted: cited from earlier work.
Experiment [5] has as its system ectopeptidases in whole OHSCs. Conditions: EO sampling; cited from earlier work.

Take `CC(C)C[C@H](NC(=O)[C@@H](O)[C@H](N)Cc1ccccc1)C(=O)O` [bestatin]: the Ki in experiment [1] was 12 ± 9 µM; in experiment [2], 11 ± 7 µM; in experiment [3], 0.5 µM.

Turning to `COc1ccc(C[C@H](N)C(=O)N[C@H]2[C@@H](O)[C@H](n3cnc4c(N(C)C)ncnc43)O[C@@H]2CO)cc1` [puromycin], the Ki in experiment [4] was 100 µM; in experiment [3], 1 µM. For the same compound, in experiment [5], the “effect on hydrolysis of exogenously applied YGGFL” value was “little to no effect”.
